Data taken from a melting point compilation (Tetko et al.).

| SMILES | melting point [°C] |
| --- | --- |
| Cc1ccc(N)c(OCC(=O)N(C)C)c1 | 83 to 85 |
| O=C1Nc2c(cc(F)cc2[N+](=O)[O-])C1=O | 176 to 178 |
| Cc1c([N+](=O)[O-])cc(C(=O)O)cc1S(=O)(=O)Cl | 176 to 178 |
| NOC1CCCCO1 (centres undefined) | 34 to 37 |
| O=C(O)COc1ccc(Cl)c2cccnc12 | 209 to 211 |
| NC(=O)c1cc(C(=O)O)c[nH]1 | 344 to 346 |
| CCNC(=O)c1cccc(N)c1 | 69 to 71 |
| Cc1nc2ccccc2c(=O)n1CC(=O)O | 239 to 241 |
| Nc1nnc(C(F)(F)F)[nH]1 | 155 to 157 |
| Cn1c(Cl)nc2ccccc2c1=O | 109 to 111 |
| O=C1CNC(=O)c2ccccc2N1 | 324 to 326 |
| Cc1nc2ccccc2n1CCN | 235 to 237 |
| CC(C)(N)CCS(C)(=O)=O | 41 to 43 |
| Cc1nnnn1C(Cc1ccc(F)cc1)C(=O)O (centres undefined) | 152 to 154 |
| COc1n[nH]c(N)c1C#N | 179 to 181 |
| Cc1nc(C(=O)O)c(C)s1 | 172 to 174 |
| CN(C)C(=O)c1ccc(NC(=O)CCl)cc1 | 177 to 179 |
| CNc1cc(C(=O)O)cc(Cl)n1 | 259 to 261 |
| Cc1ccc(N2CCOC2=O)cc1N | 124 to 126 |
| Cc1cc(NS(=O)(=O)C(F)(F)F)ccc1C(=O)O | 169 to 171 |
| COc1ccccc1Cn1cnc2cc(C)c(C)cc21 | 126 to 128 |
| CC(=O)N(C)c1nc(C=O)cs1 | 164 to 166 |
| O=C(O)CCSc1nc2ccccc2s1 | 149 to 151 |
| O=C1CC(C(F)(F)F)N(C(=O)CCl)c2ccccc2N1 (centres undefined) | 159 to 161 |
| NC1CCCCNC1=O (centres undefined) | 54 to 56 |
| CCc1nnc2cc(Cl)ncn12 | 108 to 110 |

| SMILES | melting point [°C] |
| --- | --- |
| CCN(CC)C(=O)Nc1ccc(C(C)=O)cc1 | 113 to 115 |
| Oc1ccc2nc[nH]c2c1 | 215 to 217 |
| NC1CN(S(=O)(=O)c2ccc3c(c2)OCCO3)C1 | 124 to 126 |
| O=C(O)c1cnn2c(-c3ccccc3)ccnc12 | 228 to 230 |
| Clc1cc(-n2cccn2)ccn1 | 111 to 113 |
| Cc1sc(N)c(C(N)=O)c1C | 179 to 181 |
| BrCCOc1ccc(Oc2ccccc2)cc1 | 35 to 37 |
| O=C(O)c1ccc(S(=O)(=O)Cl)cc1F | 142 to 144 |
| COc1ccc(CC(=O)O)cc1F | 110 to 112 |
| CC(C)(C)OC(=O)NCCC1CNc2ccccc21 (centres undefined) | 90 to 92 |
| Cc1ccc(C(=O)Nc2cccc(C(F)(F)F)c2)cc1N | 109 to 111 |
| O=C1NCCCCC1Oc1ccc(O)cc1 (centres undefined) | 219 to 221 |
| COc1ccc(C(=O)NN)c(OC)c1 | 112 to 114 |
| Cc1ccccc1C1(C(=O)O)CCOCC1 | 170 to 172 |
| Cc1cc(C(=O)O)ccc1I | 218 to 220 |
| CCNS(=O)(=O)c1ccc2c(c1)NCC2 | 112 to 114 |
| Cn1c(=O)c(CBr)nc2ccccc21 | 179 to 181 |
| N#Cc1ccc(F)c(F)c1N | 92 to 94 |
| O=C1OCCN1c1cc([N+](=O)[O-])ccc1Cl | 157 to 159 |
| Nc1cc([N+](=O)[O-])ccc1Sc1cccs1 | 94 to 96 |
| Brc1ncnc2ccccc12 | 94 to 96 |
| NC(=O)C1CCN(c2ccc(N)cc2)CC1 | 205 to 207 |
| NC(=O)c1ncccc1N | 176 to 178 |
| CC(C)CNC(=O)c1cc(N)ccc1Cl | 109 to 111 |
| O=c1[nH][nH]c2ncc(Br)cc12 | 219 to 221 |
| Cc1nc(NC(=O)OC(C)(C)C)sc1C(N)=O | 279 to 281 |

| SMILES | melting point [°C] |
| --- | --- |
| Cc1cccc2[nH]c(CCC(=O)O)nc12 | 238 to 240 |
| [N-]=[N+]=Nc1ccc(Br)cc1Cl | 60 to 62 |
| CC(C)(C)OC(=O)N1CCC(OC(=O)c2ccc(N)cc2)CC1 | 147 to 149 |
| O=C(CBr)C12CC3CC(CC(C3)C1)C2 | 59 to 61 |
| Nc1ccc(OCc2ccco2)c(Cl)c1 | 72 to 74 |
| Cc1nc(-c2ccc(S(N)(=O)=O)cc2)co1 | 245 to 247 |
| Oc1cc(C(F)(F)F)nc(-c2cccnc2)n1 | 277 to 279 |
| Cc1ccc(C(=O)Nc2ccccc2)cc1N | 151 to 153 |
| CS(=O)(=O)CBr | 34 to 36 |
| N#CCC(=O)c1cc(Cl)cc(Cl)c1 | 139 to 141 |
| O=[N+]([O-])c1cccc(-c2nn[nH]n2)c1 | 154 to 156 |
| CN(C)C(=O)c1ccc(Cl)c(NC(=O)OCC(F)(F)F)c1 | 96 to 98 |
| Nc1cc(S(=O)(=O)NC2CC2)c(Cl)cc1F | 120 to 122 |
| Nc1ccc(-c2nc3cccc(Cl)c3s2)cc1 | 149 to 151 |
| O=C1c2ccccc2C(=O)N1CCCCCCO | 57 to 59 |
| Cc1ccc(Cl)c(N)c1C(=O)O | 119 to 121 |
| CCN(Cc1ccccc1)S(=O)(=O)c1cc(C(=O)O)ccc1OC | 102 to 105 |
| COc1ccc(-c2cc3ncnc(Cl)c3s2)cc1 | 179 to 181 |
| Brc1cc[nH]n1 | 74 to 76 |
| Nc1ccccc1CN1CCc2ccccc21 | 75 to 77 |
| NC(=O)c1cccc2c1CCCN2 | 172 to 174 |
| Clc1cc(-c2ccccc2)c2ccccc2n1 | 85 to 89 |
| Nc1ccc(S(F)(F)(F)(F)F)cc1Br | 58 to 60 |
| O=C1CCOc2c(Br)cccc21 | 62 to 64 |
| Nc1ccnc2ncnn12 | 264 to 266 |
| Cc1c(C(N)=O)cccc1[N+](=O)[O-] | 163 to 165 |

| SMILES | melting point [°C] |
| --- | --- |
| Nc1ccc(-c2nc3cc(F)ccc3[nH]2)cc1 | 194 to 196 |
| COCCOc1c(Cl)cc(N)cc1Cl | 58 to 60 |
| CC(C)Nc1cc(F)ccc1[N+](=O)[O-] | 68 to 70 |
| COc1ccc(CCC(C)(N)C(=O)O)cc1 (centres undefined) | 303 to 305 |
| Cc1cccc2c(=O)[nH]c(CCl)nc12 | 190 to 192 |
| O=C(O)CSc1nc2ccccc2s1 | 159 to 161 |
| Cc1ccc(-c2nnc(N)[nH]2)s1 | 222 to 224 |
| CC(C)(C)OC(=O)CNC(=O)CCl | 66 to 68 |
| ClCc1cc2c(cc1Cl)OCCCO2 | 55 to 57 |
| O=C(O)CCNC(=O)c1ccc(F)cc1F | 118 to 120 |
| COC(=O)c1cc(N)c(OC)c(OC)c1 | 127 to 129 |
| CC(C)c1ccc(C(=O)CCl)cc1 | 44 to 46 |
| COc1ccccc1Nc1ccc([N+](=O)[O-])cc1N | 149 to 151 |
| O=C(O)c1ccn(-c2cccc([N+](=O)[O-])c2)n1 | 230 to 232 |
| Cc1nc(CC(C)C)c(C(=O)O)s1 | 116 to 118 |
| CC(NC(=O)CCl)c1ccco1 (centres undefined) | 63 to 65 |
| O=C(O)Cn1nnc(-c2ccco2)n1 | 216 to 218 |
| O=C(Nc1cnccn1)c1ccc(I)cc1 | 196 to 198 |
| NC(=O)c1ccccc1Oc1ncccc1C(=O)O | 253 to 255 |
| O=C(O)CCCn1cccn1 | 74 to 76 |
| CC1(c2cccc(C(F)(F)F)c2)NC(=O)NC1=O (centres undefined) | 219 to 221 |
| CN1CC(=O)N(Cc2ccc(C(N)=O)cc2N)C1=O | 187 to 189 |
| Cc1c(C(=O)O)cnn1C1CCCCC1 | 143 to 145 |
| Nc1cccc(-c2ccc(Cl)c(Cl)c2)c1 | 97 to 99 |
| NCCC(=O)N1CCN(c2ccccn2)CC1 | 76 to 78 |
| CC(C)(C#N)S(=O)(=O)c1ccc(Br)cc1 | 118 to 120 |
